Measured values as given in ChEMBL document CHEMBL1147543, “Styrylheterocycles as a novel class inhibitor of cyclooxygenase-2-mediated prostaglandin E(2) production” (Bioorg Med Chem Lett, 2004).

system: RAW264.7; assay: Inhibitory effect on PGE-2 production in LPS-stimulated RAW264.7 cells; format: functional, cell-based; details: Mus musculus

Row | IC50 | Structure (SMILES)
1 | 7.4 µM | COc1cc(/C=C/c2cc(OC)c(OC)cc2OC)cc(OC)c1
2 | > 33.3 µM | COc1cc(/C=C/c2cc(OC)cc(OC)c2)cc(OC)c1
3 | 4 µM | Oc1ccc(/C=C/c2cc(O)cc(O)c2)cc1 [RESVERATROL]
